Reference: PubChem BioAssay (NCI)
“And” between values parts separate entries of the source, which are not always exact repeats. Equal entries are not always repeated.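 All cell lines were grown in 96-well plates and treated with compound for 48 hours. GI50: concentration for 50% inhibition of growth. TGI marks complete inhibition of growth.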

What was measured:
Experiment in all cases: growth of human tumour cells (NCI), 48 h
A498 renal = system: A498 renal
COLO 205 colon = system: COLO 205 colon
HL-60(TB) leukemia = system: HL-60(TB) leukemia
HS 578T breast = system: HS 578T breast
KM12 colon = system: KM12 colon
NCI-H226 lung = system: NCI-H226 lung
OVCAR-4 ovarian = system: OVCAR-4 ovarian
SF-295 CNS = system: SF-295 CNS
SW-620 colon = system: SW-620 colon
U251 CNS = system: U251 CNS

SMILES | GI50 (A498 renal) | TGI (A498 renal) | GI50 (COLO 205 colon) | TGI (COLO 205 colon) | GI50 (HL-60(TB) leukemia) | TGI (HL-60(TB) leukemia) | GI50 (HS 578T breast) | TGI (HS 578T breast) | GI50 (KM12 colon) | TGI (KM12 colon) | GI50 (NCI-H226 lung) | TGI (NCI-H226 lung) | GI50 (OVCAR-4 ovarian) | TGI (OVCAR-4 ovarian) | GI50 (SF-295 CNS) | TGI (SF-295 CNS) | GI50 (SW-620 colon) | TGI (SW-620 colon) | GI50 (U251 CNS) | TGI (U251 CNS)
COc1ccc(C2c3ccc4ccccc4c3Oc3ncn(CCCn4ccnc4)c(=N)c32)cc1OC (configuration not stated) | 1.5 µM | 4.59 µM | 2.04 µM | 4.51 µM | 2.04 µM | 4.05 µM | 2.26 µM | 7.46 µM | 3.74 µM | 13.9 µM | 9.16 µM | 27.1 µM | 9.65 µM | 26.4 µM | 4.35 µM | 19.9 µM | 2.73 µM | 9.24 µM | 2.36 µM | 7.69 µM
CC(=O)OCC1OC(SC2=N/C(=C\c3ccc(Br)s3)C(=O)N2c2ccccc2)C(OC(C)=O)C(OC(C)=O)C1OC(C)=O (configuration not stated) | – | > 100 µM | – | > 100 µM | 8.5 µM and 3.83 µM | > 100 µM and 21.4 µM | – | 78.4 µM and > 100 µM | > 100 µM and 44.3 µM | > 100 µM | 46.9 µM and 15.7 µM | > 100 µM | – | > 100 µM | – | > 100 µM | – | > 100 µM | 28 µM and 63.1 µM | > 100 µM
CC(=O)O[C@@H]1c2c(c3c(=O)c4cccc(O)c4c(=O)c=3c2=[N+]=[N-])[C@H](OC(C)=O)[C@@H](OC(C)=O)[C@]1(C)O | 1.34 µM | 1.82 µM and 3.02 µM | 0.605 µM and 0.16 µM | 1.29 µM and 0.296 µM | 0.172 µM | – | 0.575 µM | 0.881 µM and 3.54 µM | 0.27 µM | 0.914 µM and 0.9 µM | 0.617 µM | 1.45 µM and 2.18 µM | – | 4.32 µM and 2.16 µM | 0.785 µM | 1.5 µM and 1.56 µM | 0.216 µM | 1.22 µM | 0.532 µM and 0.101 µM | 1.14 µM and 0.222 µM
O=C1CN=C(c2ccc[nH]2)c2cc(Cl)ccc2N1 | > 100 µM | > 100 µM | > 100 µM | > 100 µM | 4.16 µM | > 100 µM | > 100 µM | > 100 µM | > 100 µM | > 100 µM | > 100 µM | > 100 µM | > 100 µM | > 100 µM | > 100 µM | > 100 µM | > 100 µM | > 100 µM | 71.8 µM | > 100 µM
CCCCN(CCCC)P(=O)(Oc1ccccc1)Oc1ccccc1 | 11.6 µM | 24.1 µM | 11.3 µM | 26.7 µM | 4.54 µM | 18.7 µM | 6.6 µM | 24.8 µM | 8.1 µM | 21.4 µM | 10.4 µM | 25.4 µM | 7.35 µM | 20.5 µM | 3.49 µM | 16.1 µM | 5.41 µM | 19.4 µM | 5.59 µM | 19.1 µM
CN1CCc2ccccc2C1Cc1ccccc1NC(=O)c1sc2ccccc2c1Cl (configuration not stated) | – | > 100 µM | – | > 100 µM | – | > 100 µM | – | > 100 µM | – | > 100 µM | – | > 100 µM | – | > 100 µM | – | > 100 µM | – | > 100 µM | – | > 100 µM
Oc1nc(N2CCOCC2)sc1/C=C1\C=Nc2ccccc21 | > 100 µM | > 100 µM | > 100 µM | > 100 µM | > 100 µM | > 100 µM | > 100 µM | > 100 µM | > 100 µM | > 100 µM | > 100 µM | > 100 µM | > 100 µM | > 100 µM | > 100 µM | > 100 µM | > 100 µM | > 100 µM | > 100 µM | > 100 µM
Cc1ccc(-c2cc(C(=O)Nc3ccc(S(=O)(=O)N4CCCCC4)cc3)[nH]n2)c(O)c1 | > 100 µM | > 100 µM | > 100 µM | > 100 µM | > 100 µM | > 100 µM | > 100 µM | > 100 µM | > 100 µM | > 100 µM | > 100 µM | > 100 µM | > 100 µM | > 100 µM | > 100 µM | > 100 µM | > 100 µM | > 100 µM | > 100 µM | > 100 µM
Cc1[nH]c2ccccc2c1CO | 17.2 µM | 56.2 µM | 14.2 µM | 27.3 µM | 15.8 µM | 39 µM | 15.6 µM | 44 µM | 4.84 µM | 19.4 µM | 25.8 µM | 93.9 µM | 21.4 µM | 82.6 µM | 22.5 µM | 44.7 µM | 15.1 µM | 28.4 µM | 21.2 µM | 43.9 µM
O=C(Nc1ccc(I)cc1F)c1cc(Br)ccc1O | 0.175 µM | 0.63 µM | 3.83 µM | 13.4 µM | 0.472 µM | 3.5 µM | 0.346 µM | 2.62 µM | 2.2 µM | 5.49 µM | 1.28 µM | 4.41 µM | 0.442 µM | > 23.1 µM | 1.73 µM | 3.39 µM | 0.849 µM | 9.47 µM | 0.754 µM | > 100 µM
CCOC(=O)c1c(NN2CCN(CC(F)(F)F)CC2)oc(/C=C2\C=Nc3ncccc32)c1O | 3.62 µM | 9.62 µM | 0.76 µM | 11.1 µM | 1.85 µM | 4.67 µM | 0.913 µM | 6.72 µM | 3.45 µM | 15.3 µM | 1.73 µM | 27 µM | 6.17 µM | 26.4 µM | 8.47 µM | 37.4 µM | 0.808 µM | 22.9 µM | 4.01 µM | 28 µM
COc1cc(-n2cc(-c3ccc(Cl)cc3)n(-c3ccccc3)c2=O)cc(OC)c1OC | 15.1 µM | 74.5 µM | 11.7 µM | 44.2 µM | 2.82 µM | > 47.6 µM | 25.6 µM | > 100 µM | 23.3 µM | > 100 µM | 29.9 µM | 97.1 µM | 17.9 µM | > 100 µM | 19.3 µM | > 100 µM | 27.1 µM | > 100 µM | 23.5 µM | > 100 µM
